species on record: Homo sapiens; test: Compound tested for the inhibition of IL1-beta release stimulated with LPS in human monocytes was determined at a concentration of 1 uM; type: functional

Row | SMILES | inhibition at 1 µM [%]
1 | COC(=O)[C@@]1(C)CCC[C@]2(C)c3cc(O)c(C(C)C)cc3C=C[C@@H]12 | 38
2 | COC(=O)[C@@]1(C)CCC[C@]2(C)c3cc(O)c([N+](=O)[O-])cc3C=C[C@@H]12 | 5
3 | COC(=O)[C@@]1(C)CCC[C@]2(C)c3cc(O)c(O)cc3CCC12 (stereo partly drawn) | 42
4 | COC(=O)[C@@]1(C)CCC[C@]2(C)c3cc(O)ccc3CCC12 (stereo partly drawn) | 15

species on record: Homo sapiens; test: Inhibition of IL1-beta release stimulated with LPS in human monocytes; type: functional

Row | SMILES | IC50 [nM]
5 | COC(=O)c1cc2c(cc1C(=O)OC)[C@@]1(C)CCC[C@](C)(C(=O)N3CCOCC3)C1C=C2 (stereo partly drawn) | 110
6 | C=CCc1c2c(cc(C(=O)OC)c1C(=O)OC)[C@@]1(C)CCC[C@](C)(C(=O)OC)C1CC2 (stereo partly drawn) | 200
7 | COC(=O)[C@@]1(C)CCC[C@]2(C)c3cc(O)c(O)cc3C=CC12 (stereo partly drawn) | 100
8 | CCCc1c2c(cc(C(=O)OC)c1C(=O)OC)[C@@]1(C)CCC[C@](C)(C(=O)OC)C1CC2 (stereo partly drawn) | 300
9 | COC(=O)c1cc2c(cc1Br)C=C[C@H]1[C@@](C)(C(=O)OC)CCC[C@]21C | 800
10 | COC(=O)[C@@]1(C)CCC[C@]2(C)c3cc(OC)c(O)cc3C=C[C@@H]12 | 100
11 | COC(=O)[C@@]1(C)CCC[C@]2(C)c3cc(OC)c(O)cc3CC[C@@H]12 | 1400
12 | CCCc1c2c(cc(C(=O)OC)c1C(=O)OC)[C@@]1(C)CCC[C@](C)(C(=O)OC)C1C=C2 (stereo partly drawn) | 110
13 | COC(=O)c1cc2c(cc1C(=O)OC)[C@@]1(C)CCC[C@](C)(C(=O)O)C1C=C2 (stereo partly drawn) | 110
14 | COC(=O)c1cc2c(cc1C(=O)OC)[C@@]1(C)CCC[C@](C)(C(=O)OC)C1CC2=O (stereo partly drawn) | 1000
15 | COC(=O)[C@@]1(C)CCC[C@]2(C)c3cc(C(=O)OC(C)(C)C)c(C(=O)OC(C)(C)C)cc3C=CC12 (stereo partly drawn) | 540
16 | CCCc1c2c(cc(OC)c1C(=O)OC)[C@@]1(C)CCC[C@](C)(C(=O)OC)[C@@H]1C=C2 | 300
17 | CCCc1c(C(=O)OC)c(C(=O)OC)cc2c1C(=O)CC1[C@@](C)(C(=O)OC)CCC[C@]21C (stereo partly drawn) | 800
18 | COC(=O)[C@@]1(C)CCC[C@]2(C)c3cc(C(=O)OC(C)C)c(C(=O)OC(C)C)cc3C=CC12 (stereo partly drawn) | 110
19 | CCOC(=O)CCCNC(=O)[C@@]1(C)CCC[C@]2(C)c3cc(C(=O)OC)c(C(=O)OC)cc3C=CC12 (stereo partly drawn) | 150
20 | COC(=O)c1cc2c(c(C(C)=O)c1C(=O)OC)CCC1[C@@](C)(C(=O)OC)CCC[C@]21C (stereo partly drawn) | 110
21 | COC(=O)[C@@]1(C)CCC[C@]2(C)c3cc(O)c(N)cc3C=C[C@@H]12 | 150
22 | COC(=O)Cc1cc2c(cc1C(=O)OC)[C@@]1(C)CCC[C@](C)(C(=O)OC)[C@@H]1C=C2 | 400
23 | COC(=O)c1cc2c(cc1OC)C=C[C@H]1[C@@](C)(C(=O)OC)CCC[C@]21C | 100
24 | COC(=O)c1cc2c(cc1NS(C)(=O)=O)C=C[C@H]1[C@@](C)(C(=O)OC)CCC[C@]21C | 100
25 | COC(=O)c1cc2c(c(Br)c1C(=O)OC)CCC1[C@@](C)(C(=O)OC)CCC[C@]21C (stereo partly drawn) | 400
26 | COC(=O)c1cc2c(cc1C(=O)OC)[C@@]1(C)CCC[C@](C)(C(=O)OC)C1C=C2 (stereo partly drawn) | 100
27 | COC(=O)[C@@]1(C)CCC[C@]2(C)c3cc(O)c(OC)cc3C=C[C@@H]12 | 100
28 | COC(=O)C[C@@]1(C)CCC[C@]2(C)c3cc(C(=O)OC)c(C(=O)OC)cc3C=CC12 (stereo partly drawn) | 160
29 | COC(=O)c1cc2c(c(C)c1C(=O)OC)C=CC1[C@@](C)(C(=O)OC)CCC[C@]21C (stereo partly drawn) | 140
30 | COC(=O)c1cc2c(cc1OC)[C@@]1(C)CCC[C@](C)(C(=O)OC)[C@@H]1C=C2 | 160
31 | COC(=O)c1cc2c(cc1OC)[C@@]1(C)CCC[C@](C)(C(=O)OC)[C@@H]1C(=O)C2 | 260
32 | COC(=O)c1cc2c(c(C)c1C(=O)OC)C(C)=CC1[C@@](C)(C(=O)OC)CCC[C@]21C (stereo partly drawn) | 200
33 | COc1cc2c(c(C)c1O)C=C[C@H]1[C@@](C)(C(=O)O)CCC[C@]21C | 100

Reference: ChEMBL document CHEMBL1131935, “Novel cytokine release inhibitors. Part IV: analogs of podocarpic acid” (Bioorg Med Chem Lett, 1999)
